This passage reports IC50 results from patent publication US9771378B2 (Denali Therapeutics, Inc., priority 2014, dated 2017).

Each structure is given as a SMILES string. Where only a bound is given, the exact number is not on record here.

For the assay, the system named is Aβ42 (human neuroglioma H4 cells expressing human wild type APP751). Briefly: In vitro cell screening assay with sandwich ELISA quantification of Aβ42 peptide. Format: cell-based. The following applies: H4 cells stably expressing human wild type APP751; Pro293 chemically defined medium; compounds 0.003-10 μM; incubated overnight (16-18 h); supernatant Aβ42 by sandwich ELISA; normalized to DMSO and DAPT; read-out: Aβ42 H4 Prot Fre IC50. The procedure, abridged: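 H4 neuroglioma cells stably expressing human wild-type APP751 were treated in Pro293 medium with compounds (0.003-10 μM, 0.33% DMSO) for 16-18 h at 37° C. Secreted Aβ42 measured by sandwich ELISA (C-terminal capture, 4G8-HRP detection, TMB, 450 nm). IC50 by variable-slope sigmoidal regression on percent of DMSO control.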
As a reminder, the IC50 is the point on the concentration scale where inhibition reaches its midpoint. In the case of `COc1cc(Nc2ncc3c(n2)N(C)C(C(F)(F)F)CO3)ncc1-n1cnc(C)c1` (single isomer, unassigned; (+)) [Example 236A], the IC50 was > 3 µM.
`COc1cc(Nc2ncc3c(n2)N(C)C(c2ccc(F)cc2)CO3)ccc1-n1cnc(C)c1` (racemic) [Example 49]: the IC50 was 0.036 µM.
Next, `COc1cc(Nc2ncc3c(n2)N(C)C(C2COC2)CO3)cnc1-n1cnc(C)c1` (single isomer, unassigned; (+)) [Example 243A]: 0.601 µM; `Cc1cc(-c2ccc(Nc3ncc4c(n3)N(C)C(Cc3ccccc3)CO4)cc2F)ccn1` (single isomer, unassigned; (-)) [Example 57B]: 0.88 µM.
The same measure for `COc1cc(Nc2ncc3c(n2)N(C)C(c2cc(F)cc(F)c2)CO3)cnc1-n1cnc(C#N)c1` (single isomer, unassigned; (+)) [Example 211A, (+)-1-(5-((7-(3,5-difluorophenyl)-8-methyl-7,8-dihydro-6H-pyrimido [5,4-b] [1, 4]oxazin-2-yl)amino)-3-methoxypyridin-2-yl)-1H-imidazole-4-carbonitrile]: 0.179 µM; for `COc1cc(Nc2ncc3c(n2)N(C)[C@@H](c2ccccc2)CO3)ccc1-c1ccnc(C)c1` [Example 21B, (S)—N-(3-methoxy-4-(2-methylpyridin-4-yl)phenyl)-8-methyl-7-phenyl-7,8-dihydro-6H-pyrimido[5,4-b][1,4]oxazin-2-amine]: 0.04 µM; for `Cc1cc(-c2ccc(Nc3ncc4c(n3)N(C)C(c3cc(F)c(F)c(F)c3)CO4)cc2F)ccn1` (racemic) [Example 36]: 0.162 µM.
The same measure for `COc1cc(Nc2ncc3c(n2)N(C)C(c2ccccc2C)CO3)ccc1-c1ccnc(C)c1` (racemic) [Example 35]: 0.087 µM; for `COc1cc(Nc2ncc3c(n2)N(C)C(c2ccccc2)CO3)ccc1-c1ccnc(C)c1` (racemic) [Example 46, N-(3-methoxy-4-(2-methylpyridin-4-yl)phenyl)-8-methyl-7-phenyl-7,8-dihydro-6H-pyrimido[5,4-b][1,4]oxazin-2-amine]: 0.048 µM; for `COc1cc(Nc2ncc3c(n2)N(C)[C@@H](C(C)(C)C)CO3)cnc1-n1cnc(C)c1` [Example 246]: 0.024 µM.
As to `COc1cc(Nc2ncc3c(n2)N(C)C(Cc2ccccc2)CO3)ccc1-c1ccnc(C)c1` (single isomer, unassigned; (+)) [Example 68A], the IC50 was found to be 0.05 µM.
Next, `Cc1cn(-c2ccc(Nc3ncc4c(n3)N(C)C(c3ccc(F)cc3Cl)CO4)cc2F)cn1` (single isomer, unassigned; (-)) [Example 101B]: 0.685 µM; `COc1cc(Nc2ncc3c(n2)N(C)C(c2ccc(Cl)cc2C(F)(F)F)CO3)ccc1-c1ccnc(C)c1` (single isomer, unassigned; (+)) [Example 107B]: 0.174 µM; `Cc1cn(-c2ccc(Nc3ncc4c(n3)N(C)C(C)CO4)cc2C#N)cn1` (single isomer, unassigned; (+)) [Example 205A, (+)-5-((7,8-dimethyl-7,8-dihydro-6H-pyrimido [5,4-b] [1, 4]oxazin-2-yl)amino)-2-(4-methyl-1H-imidazol-1-yl) benzonitrile]: 0.231 µM.
The same measure for `Cc1cc(-c2ccc(Nc3ncc4c(n3)N(C)C(c3cc(F)c(F)c(F)c3)CO4)cc2F)ccn1` (single isomer, unassigned; (-)) [Example 36B]: 1.25 µM.
Next, `COc1cc(Nc2ncc3c(n2)N(C)C(c2ccc(Cl)cc2C(F)(F)F)CO3)ccc1-c1ccnc(C)c1` (single isomer, unassigned; (-)) [Example 107A]: 0.422 µM; `COc1cc(Nc2ncc3c(n2)N(C)C(c2cc(F)cc(F)c2)CO3)ccc1-c1ccnc(C)c1` (single isomer, unassigned; (-)) [Example 42B]: 0.801 µM; `COc1ccc(Cl)c(C2COc3cnc(Nc4ccc(-n5cnc(C)c5)c(OC)c4)nc3N2C)c1` (single isomer, unassigned; (-)) [Example 167B]: 0.075 µM.
In the case of `Cc1cc(-c2ccc(Nc3ncc4c(n3)N(C)C(c3ccc(F)cc3F)CO4)cc2F)ccn1` (single isomer, unassigned; (-)) [Example 66B], the IC50 is 1.1 µM.
For `Cc1cn(-c2ccc(Nc3ncc4c(n3)N3CCOC[C@@H]3CO4)cc2F)cn1` [Example 300], the IC50 stood at 0.781 µM.
The same measure for `COc1cc(Nc2ncc3c(n2)N(C)C(c2ccc(F)cc2)CO3)ccc1-c1ccnc(C)c1` (single isomer, unassigned; (-)) [Example 61A]: 1.01 µM; for `COc1cc(Nc2ncc3c(n2)N(C)C(c2ccc(F)cc2)CO3)ccc1-c1ccnc(C)c1` (single isomer, unassigned; (+)) [Example 61B]: 0.058 µM; for `COc1cc(Nc2ncc3c(n2)N(C)C(c2ccc(F)cc2F)CO3)ccc1-c1ccnc(C)c1` (single isomer, unassigned; (-)) [Example 63A]: 0.543 µM.
The same measure for `COc1cc(Nc2ncc3c(n2)N(C)C(C)(C)CO3)cnc1-n1cnc(C)c1` [Example 261]: 0.139 µM; for `COc1nc(Nc2ncc3c(n2)N(C)C(c2cc(F)cc(F)c2)CO3)ccc1-n1cnc(C)c1` (single isomer, unassigned; (-)) [Example 179A]: > 3 µM; for `COC[C@H]1COc2cnc(Nc3ccc(-n4cnc(C)c4)c(OC)c3)nc2N1C` [Example 111]: 0.12 µM.
Next, `COc1cc(Nc2ncc3c(n2)N(C)C2(CCOCC2)CO3)cnc1-n1cnc(C)c1` [Example 274]: 0.295 µM; `COc1cc(Nc2ncc3c(n2)N(C)C(c2ccccc2)CO3)ccc1-n1cnc(C)c1` (racemic) [Example 45, N-(3-methoxy-4-(4-methyl-1H-imidazol-1-yl)phenyl)-8-methyl-7-phenyl-7,8-dihydro-6H-pyrimido[5,4-b][1,4]oxazin-2-amine]: 0.058 µM.
For the molecule `Cc1cn(-c2ccc(Nc3ncc4c(n3)N(C)C(c3ccccc3)CO4)cc2)cn1` (single isomer, unassigned; (+)) [Example 26A], the IC50 worked out at 0.055 µM.
As to `Cc1cn(-c2ncc(Nc3ncc4c(n3)N(C)C(C(F)(F)F)CO4)cc2Cl)cn1` (single isomer, unassigned; (+)) [Example 229B], the IC50 was found to be 2.85 µM.
The same measure for `Cc1cn(-c2ccc(Nc3ncc4c(n3)N(C)C(c3ccccc3OC(F)(F)F)CO4)cc2F)cn1` (single isomer, unassigned; (-)) [Example 64B]: 0.741 µM; for `COc1cc(Nc2ncc3c(n2)N(C)C(c2ccccc2Cl)CO3)ccc1-n1cnc(C)c1` (single isomer, unassigned; (+)) [Example 51B]: 0.058 µM; for `COc1cc(Nc2ncc3c(n2)N(C)[C@@H](C2CC2)CO3)cnc1-n1cnc(C)c1` [Example 225]: 0.033 µM.
The same measure for `COc1cc(Nc2ncc3c(n2)N(C)[C@@H](C(C)(C)C)CO3)ccc1-n1cnc(C)c1` [Example 240]: 0.021 µM; for `COc1cc(Nc2ncc3c(n2)N(C)C(C)CO3)cnc1-n1cnc(C)c1` (single isomer, unassigned; (+)) [Example 185A]: 0.241 µM.
Next, `COc1cc(Nc2ncc3c(n2)N(C)[C@@H](C2CCC2)CO3)ccc1-n1cnc(C)c1` [Example 227]: 0.019 µM.
For `COc1cc(Nc2ncc3c(n2)N(C)C(C(F)(F)F)CO3)ccc1C#N` (single isomer, unassigned; (-)) [Example 230B, (−)-2-methoxy-4-((8-methyl-7-(trifluoromethyl)-7,8-dihydro-6H-pyrimido [5,4-b] [1, 4]oxazin-2-yl)amino) benzonitrile], the IC50 is 0.717 µM.
`COc1nc(Nc2ncc3c(n2)N(C)C(c2cc(F)cc(F)c2)CO3)c(F)cc1-c1cnn(C)c1` (racemic) [Example 197]: the IC50 was > 3 µM.
Regarding `COc1cc(Nc2ncc3c(n2)N(C)C(C)CO3)ccc1-c1ccnc(C)c1` (single isomer, unassigned; (-)) [Example 110A], the IC50 worked out at 0.199 µM.
Next, `COc1cc(Nc2ncc3c(n2)N(C)C(c2cc(F)c(F)cc2F)CO3)cnc1-n1cnc(C)c1` (single isomer, unassigned; (-)) [Example 181A]: 0.009 µM; `COc1cc(Nc2ncc3c(n2)N(C)C(c2cc(F)cc(F)c2)CO3)cnc1-n1cnc(C(F)(F)F)c1` (single isomer, unassigned; (+)) [Example 206A]: 0.027 µM.
Consider `COc1cc(Nc2ncc3c(n2)N(C)C(c2ccccc2Cl)CO3)ccc1-n1cnc(C)c1` (single isomer, unassigned; (-)) [Example 51A], for which the IC50 was 0.028 µM.
The same measure for `COc1cc(Nc2ncc3c(n2)N(C)C(c2ccccc2C(F)(F)F)CO3)ccc1-c1ccnc(C)c1` (single isomer, unassigned; (+)) [Example 70B]: 0.151 µM; for `COc1ccc(Cl)c(C2COc3cnc(Nc4ccc(-n5cnc(C)c5)c(OC)c4)nc3N2C)c1` (single isomer, unassigned; (+)) [Example 167A]: 0.022 µM; for `Cc1cn(-c2ccc(Nc3ncc4c(n3)N(C)C(c3cc(F)cc(F)c3)CO4)nc2C#N)cn1` (single isomer, unassigned; (+)) [Example 192B, (+)-6-((7-(3,5-difluorophenyl)-8-methyl-7,8-dihydro-6H-pyrimido [5,4-b] [1, 4]oxazin-2-yl)amino)-3-(4-methyl-1H-imidazol-1-yl) picolinonitrile]: 0.576 µM.
With `COc1ccc(C2COc3cnc(Nc4ccc(-n5cnc(C)c5)c(OC)c4)nc3N2C)c(C)c1` (single isomer, unassigned; (+)) [Example 199A], the IC50 was 0.025 µM.
